Literature values in PMC8278929 (Chemical Science, 2021).

What was measured:
[1] = free, uncoordinated alcohol, no reference given
[2] = analogue of 11
[3] = in PBS, Os/pyr/for 1:200:400

OCCCc1ccccc1 [3-phenyl-1-propanol]
estimated pKa [1]: ca. 16

[Os(η^6-C6H5C6H5)(4-Me-pico)Cl]^+
ΔS^‡ (entropy of hydrolysis) [2]: −55.6 ± 1.6 J K^−1 mol^−1

[Os(η^6-p-cymene)(TsDPEN)]
TOFmax [3]: 1.5 h⁻¹
